Assay results: patent publication US20070179060A1, “6-(Poly-substituted aryl)-4-aminopicolinates and their use as herbicides” (priority 2006, published 2007)

Tests used:
Experiment in all cases: Postemergence herbicidal safening in cereal crops
Type in all cases: in vivo
Conditions in all cases: Table 5, applied alone, after 3 weeks
Galium aparine = system: Galium aparine
Description: (§1) Seeds of the desired test plant species were planted in Sun Gro MetroMix® 306 planting mixture, which typically has a pH of 6.0 to 6.8 and an organic matter content of about 30 percent, in plastic pots with a surface area of 103.2 square centimeters. When required to ensure good germination and healthy plants, a fungicide treatment and/or other chemical or physical treatment was applied. The plants were grown for 7-36 days in a greenhouse with an approximate 14 hour photoperiod which was maintained at about 18° C. during the day and 17° C. during the night. Nutrients and water were added on a regular basis and supplemental lighting was provided with overhead metal halide 1000-Watt lamps as necessary. The plants were employed for testing when they reached the second or third true leaf stage. Treatments consisted of compound 42 and cloquintocet-mexyl alone and in combination. Weighed amounts were placed in 25 mL glass vials and dissolved in a volume of 97:3 v/v acetone/DMSO to obtain 9 mg ai/mL stock solutions. […] A dilution solution was prepared by mixing 1 volume of 97:3 v/v acetone/DMSO and 2 volumes of an aqueous mixture containing acetone, water, isopropyl alcohol, DMSO, Agri-dex crop oil concentrate, and Triton® X-77 surfactant in a 64.7:26.0:6.7:2.0:0.7:0.01 v/v ratio. Compound requirements are based upon a 12 mL application volume at a rate of 187 L/ha. […] Formulated compounds were applied to the plant material with an overhead Mandel track sprayer equipped with a […] nozzles calibrated to deliver 187 L/ha over an application area of 0.503 square meters at a spray height of 18 inches (43 cm) above average plant canopy height. Control plants were sprayed in the same manner with the solvent blank. The treated plants and control plants were placed in a greenhouse as described above and watered by sub-irrigation to prevent wash-off of the test compounds. After 3 weeks the condition of the test plants as compared with that of the untreated plants was determined visually and scored on a scale of 0 to 100 percent where 0 corresponds to no injury and 100 corresponds to complete kill. Colby's equation was used to determine the herbicidal effects expected from the mixtures (Colby, S. R. 1967. Calculation of the synergistic and antagonistic response of herbicide combinations. Weeds 15:20-22.). The following equation was used to calculate the expected activity of mixtures containing two active ingredients, A and B: Expected=A+B-(A×B/100) • A=observed efficacy of active ingredient A at the same concentration as used in the mixture. • B=observed efficacy of active ingredient B at the same concentration as used in the mixture.

[1] = system: Hordeum vulgare (winter barley)
Description: as §1

Papaver rhoeas = system: Papaver rhoeas
Description: as §1

[2] = system: Triticum aestivum (spring wheat)
Description: as §1

CCCCCC(C)OC(=O)COc1ccc(Cl)c2cccnc12 (stereo not shown) [Cloquintocetmexyl, cloquintocet-mexyl]
0%: % Control GALAP Ob (Galium aparine; 35 g ai/ha) | % Control GALAP Ob (Galium aparine; 70 g ai/ha) | % Control GALAP Ob (Galium aparine; 140 g ai/ha) | % Control GALAP Ob (Galium aparine; 280 g ai/ha) | % Control HORVW Ob ([1]; 35 g ai/ha) | % Control HORVW Ob ([1]; 70 g ai/ha) | % Control HORVW Ob ([1]; 140 g ai/ha) | % Control HORVW Ob ([1]; 280 g ai/ha) | % Control PAPRH Ob (Papaver rhoeas; 35 g ai/ha) | % Control PAPRH Ob (Papaver rhoeas; 70 g ai/ha) | % Control PAPRH Ob (Papaver rhoeas; 140 g ai/ha) | % Control PAPRH Ob (Papaver rhoeas; 280 g ai/ha) | % Control TRZAS Ob ([2]; 35 g ai/ha) | % Control TRZAS Ob ([2]; 70 g ai/ha) | % Control TRZAS Ob ([2]; 140 g ai/ha) | % Control TRZAS Ob ([2]; 280 g ai/ha)
